In patent US8138168B1 (Takeda Pharmaceutical Company Limited, priority 2007, dated 2012) one finds IC50 data, which are given here for 24 compounds.

The target of the assay is T1, Recombinant human renin (Homo sapiens, UniProt P00797).
T1 construct: isolate the active form (residues 67-406); made in house; host or cells: FreeStyle 293-F cells (transient expression of pcDNA3.1(+)/hREN)
T1 sequence (P00797 67-406): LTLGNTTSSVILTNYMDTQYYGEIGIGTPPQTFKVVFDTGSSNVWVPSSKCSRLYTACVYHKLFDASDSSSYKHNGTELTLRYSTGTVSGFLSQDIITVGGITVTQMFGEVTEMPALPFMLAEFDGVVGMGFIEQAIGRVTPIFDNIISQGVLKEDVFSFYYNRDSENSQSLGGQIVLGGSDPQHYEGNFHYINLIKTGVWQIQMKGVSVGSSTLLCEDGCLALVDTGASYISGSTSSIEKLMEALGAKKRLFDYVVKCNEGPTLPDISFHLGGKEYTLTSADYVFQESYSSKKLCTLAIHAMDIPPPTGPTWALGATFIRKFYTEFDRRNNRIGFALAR
The assay is described as follows: In vitro enzymatic activity assay of renin inhibitors (fluorogenic peptide substrate). Format: biochemical. The settings on record: read-out: IC50 of Exemplified Compounds Against Renin. In short, it runs like this:
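Enzyme: recombinant human renin, 3 nM final, 10 min compound pre-incubation at 37 °C; buffer 50 mM Hepes pH 7.4 with 0.1 mg/mL BSA or extra 2% BSA; 5% DMSO.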
With `COCCCn1c([C@@H]2CCCN(C(=O)[C@@H]3CN(C(=O)c4ccc(-c5ccccc5)o4)C[C@H]3N)C2)nc2ccccc21` [Compound 352, ((3R,4S)-4-amino-1-(5-phenylfuran-2-carbonyl)pyrrolidin-3-yl)((R)-3-(1-(3-methoxypropyl)-1H-benzo[d]imidazol-2-yl)piperidin-1-yl)methanone], the IC50 was in the range of 100 to 1000 nM.

Consider `COCCCn1c([C@@H]2CCCN(C(=O)[C@@H]3CN(S(=O)(=O)c4cccc(Cl)c4C)C[C@H]3N)C2)nc2ccccc21` [Compound 353, ((3R,4S)-4-amino-1-(3-chloro-2-methylphenylsulfonyl)pyrrolidin-3-yl)((R)-3-(1-(3-methoxypropyl)-1H-benzo[d]imidazol-2-yl)piperidin-1-yl)methanone], for which the 50% inhibitory concentration (IC50) lay in the range of 100 to 1000 nM.

Consider `COCCCn1c([C@@H]2CCCN(C(=O)[C@@H]3CN(S(=O)(=O)c4cccc5ccccc45)C[C@H]3N)C2)nc2ccccc21` [Compound 354, ((3R,4S)-4-amino-1-(naphthalen-1-ylsulfonyl)pyrrolidin-3-yl)((R)-3-(1-(3-methoxypropyl)-1H-benzo[d]imidazol-2-yl)piperidin-1-yl)methanone], for which the IC50 fell in the range of 100 to 1000 nM.

For the compound `COCCCn1c([C@@H]2CCCN(C(=O)[C@@H]3CN(S(=O)(=O)c4ccc5c(c4)CCO5)C[C@H]3N)C2)nc2ccccc21` [Compound 355, ((3R,4S)-4-amino-1-(2,3-dihydrobenzofuran-5-ylsulfonyl)pyrrolidin-3-y1)((R)-3-(1-(3-methoxypropyl)-1H-benzo[d]imidazol-2-yl)piperidin-1-yl)methanone], the IC50 is 100 to 1000 nM.

Consider `COCCCn1c([C@@H]2CCCN(C(=O)[C@@H]3CN(S(=O)(=O)c4cc(C(F)(F)F)ccc4Cl)C[C@H]3N)C2)nc2ccccc21` [Compound 356, ((3R,4S)-4-amino-1-(2-chloro-5-(trifluoromethyl)phenylsulfonyl)pyrrolidin-3-yl)((R)-3-(1-(3-methoxypropyl)-1H-benzo[d]imidazol-2-yl)piperidin-1-yl)methanone], for which the concentration for half-maximal inhibition (IC50) is 100 to 1000 nM.

With `COCCCn1c([C@@H]2CCCN(C(=O)[C@@H]3CN(S(=O)(=O)c4cccc(OC)c4)C[C@H]3N)C2)nc2ccccc21` [Compound 357, ((3R,4S)-4-amino-1-(3-methoxyphenylsulfonyl)pyrrolidin-3-yl)((R)-3-(1-(3-methoxypropyl)-1H-benzo[d]imidazol-2-yl)piperidin-1-yl)methanone], the IC50 fell in the range of 100 to 1000 nM.

In the case of `COCCCn1c([C@@H]2CCCN(C(=O)[C@@H]3CN(C(=O)c4cccc(Oc5ccccc5)c4)C[C@H]3N)C2)nc2ccccc21` [Compound 358, ((3R,4S)-4-amino-1-(3-phenoxybenzoyl)pyrrolidin-3-yl)((R)-3-(1-(3-methoxypropy1)-1H-benzo[d]imidazol-2-yl)piperidin-1-yl)methanone], the IC50 was in the range of 100 to 1000 nM.

In the case of `COCCCn1c([C@@H]2CCCN(C(=O)[C@@H]3CN(S(=O)(=O)c4c(C)cccc4Cl)C[C@H]3N)C2)nc2ccccc21` [Compound 359, ((3R,4S)-4-amino-1-(2-chloro-6-methylphenylsulfonyl)pyrrolidin-3-yl)((R)-3-(1-(3-methoxypropyl)-1H-benzo[d]imidazol-2-yl)piperidin-1-yl)methanone], the IC50 lay within 100 to 1000 nM.

In the case of `COCCCn1c([C@@H]2CCCN(C(=O)[C@@H]3CN(S(=O)(=O)c4ccc5c(ccn5C)c4)C[C@H]3N)C2)nc2ccccc21` [Compound 360, ((3R,4S)-4-amino-1-(1-methyl-1H-indol-5-ylsulfonyl)pyrrolidin-3-yl)((R)-3-(1-(3-methoxypropyl)-1H-benzo[d]imidazol-2-yl)piperidin-1-yl)methanone], the IC50 was in the range of 100 to 1000 nM.

Regarding `COCCCn1c([C@@H]2CCCN(C(=O)[C@@H]3CN(S(=O)(=O)c4ccc(Cl)c(Cl)c4)C[C@H]3N)C2)nc2ccccc21` [Compound 361, ((3R,4S)-4-amino-1-(3,4-dichlorophenylsulfonyl)pyrrolidin-3-yl)((R)-3-(1-(3-methoxypropyl)-1H-benzo[d]imidazol-2-yl)piperidin-1-yl)methanone], the half-inhibitory concentration (IC50) is 100 to 1000 nM.

`COCCCn1c([C@@H]2CCCN(C(=O)[C@@H]3CN(C(=O)c4ccc5ccccc5c4)C[C@H]3N)C2)nc2ccccc21` [Compound 362, ((3R,4S)-1-(2-naphthoyl)-4-aminopyrrolidin-3-yl)((R)-3-(1-(3-methoxypropyl)-1H-benzo[d]imidazol-2-yl)piperidin-1-yl)methanone]: the IC50 is 100 to 1000 nM.

`COCCCn1c([C@@H]2CCCN(C(=O)[C@@H]3CN(S(=O)(=O)c4cccc(Cl)c4Cl)C[C@H]3N)C2)nc2ccccc21` [Compound 363, ((3R,4S)-4-amino-1-(2,3-dichlorophenyisulfonyl)pyrrolidin-3-yl)((R)-3-(1-(3-methoxypropyl)-1H-benzo[d]imidazol-2-yl)piperidin-1-yl)methanone]: the IC50 is 100 to 1000 nM.

Consider `COCCCn1c([C@@H]2CCCN(C(=O)[C@@H]3CN(S(=O)(=O)c4cccc(-c5csc(C)n5)c4)C[C@H]3N)C2)nc2ccccc21` [Compound 364, ((3R,4S)-4-amino-1-(3-(2-methylthiazol-4-yl)phenylsulfonyl)pyrrolidin-3-yl)((R)-3-(1-(3-methoxypropyl)-1H-benzo[d]imidazol-2-yl)piperidin-1-yl)methanone], for which the half-maximal inhibitory concentration (IC50) is 100 to 1000 nM.

Turning to `COCCCn1c([C@@H]2CCCN(C(=O)[C@@H]3CN(C(=O)c4ccc(Cl)c(Cl)c4)C[C@H]3N)C2)nc2ccccc21` [Compound 365, ((3R,4S)-4-amino-1-(3,4-dichlorobenzoyl)pyrrolidin-3-yl)((R)-3-(1-(3-methoxypropyl)-1H-benzo[d]imidazol-2-yl)piperidin-1-yl)methanone], the IC50 lay in the range of 100 to 1000 nM.

`COCCCn1c([C@@H]2CCCN(C(=O)[C@@H]3CN(C(=O)c4cccnc4Oc4ccccc4)C[C@H]3N)C2)nc2ccccc21` [Compound 366, ((3R,4S)-4-amino-1-(2-phenoxynicotinoyl)pyrrolidin-3-yl)((R)-3-(1-(3-methoxypropyl)-1H-benzo[d]imidazol-2-yl)piperidin-1-yl)methanone]: the concentration for half-maximal inhibition (IC50) lay in the range of 100 to 1000 nM.

With `COCCCn1c([C@@H]2CCCN(C(=O)[C@@H]3CN(C(=O)Nc4cccc(OC)c4)C[C@H]3N)C2)nc2ccccc21` [Compound 367, (3S,4R)-3-amino-N-(3-methoxyphenyl)-4-((R)-3-(1-(3-methoxypropyl)-1H-benzo[d]imidazol-2-yl)piperidine-1-carbonyl)pyrrolidine-1-carboxamide], the IC50 was 100 to 1000 nM.

Turning to `COCCCn1c([C@@H]2CCCN(C(=O)[C@@H]3CN(S(=O)(=O)c4cccc(Oc5ccccc5)c4)C[C@H]3N)C2)nc2ccccc21` [Compound 368, ((3R,4S)-4-amino-1-(3-phenoxyphenylsulfonyl)pyrrolidin-3-y1)((R)-3-(1-(3-methoxypropyl)-1H-benzo[d]imidazol-2-yl)piperidin-1-yl)methanone], the IC50 was in the range of 100 to 1000 nM.

`COCCCn1c([C@@H]2CCCN(C(=O)[C@@H]3CN(S(=O)(=O)c4ccc(OC)cc4)C[C@H]3N)C2)nc2ccccc21` [Compound 369, ((3R,4S)-4-amino-1-(4-methoxyphenylsulfonyl)pyrrolidin-3-yl)((R)-3-(1-(3-methoxypropyl)-1H-benzo[d]imidazol-2-yl)piperidin-1-yl)methanone]: the IC50 was in the range of 100 to 1000 nM.

With `COCCCn1c([C@@H]2CCCN(C(=O)[C@@H]3CN(S(=O)(=O)c4ccc(Cl)cc4)C[C@H]3N)C2)nc2ccccc21` [Compound 370, ((3R,4S)-4-amino-1-(4-chlorophenylsulfonyl)pyrrolidin-3-yl)((R)-3-(1-(3-methoxypropyl)-1H-benzo[d]imidazol-2-yl)piperidin-1-yl)methanone], the 50% inhibitory concentration (IC50) fell in the range of 100 to 1000 nM.

As for `COCCCn1c([C@@H]2CCCN(C(=O)[C@@H]3CN(S(=O)(=O)C(C)C)C[C@H]3N)C2)nc2ccccc21` [Compound 371, ((3R,4S)-4-amino-1-(isopropylsulfonyl)pyrrolidin-3-yl)((R)-3-(1-(3-methoxypropyl)-1H-benzo[d]imidazol-2-yl)piperidin-1-yl)methanone], the half-inhibitory concentration (IC50) lay in the range of 100 to 1000 nM.

Take `COCCCn1c([C@@H]2CCCN(C(=O)[C@@H]3CN(S(=O)(=O)c4ccc(OC)c(OC)c4)C[C@H]3N)C2)nc2ccccc21` [Compound 372, ((3R,4S)-4-amino-1-(3,4-dimethoxyphenylsulfonyl)pyrrolidin-3-yl)((R)-3-(1-(3-methoxypropyl)-1H-benzo[d]imidazol-2-yl)piperidin-1-yl)methanone]: the IC50 is 100 to 1000 nM.

Regarding `COCCCn1c([C@@H]2CCCN(C(=O)[C@@H]3CN(S(=O)(=O)c4ccccc4C(=O)OC)C[C@H]3N)C2)nc2ccccc21` [Compound 373, methyl 2-((3S,4R)-3-amino-4-((R)-3-(1-(3-methoxypropyl)-1H-benzo[d]imidazol-2-yl)piperidine-1-carbonyl)pyrrolidin-l-ylsulfonyl)benzoate], the half-inhibitory concentration (IC50) fell in the range of 100 to 1000 nM.

For the compound `COCCCn1c([C@@H]2CCCN(C(=O)[C@@H]3CN(S(=O)(=O)c4ccc(C(C)(C)C)cc4)C[C@H]3N)C2)nc2ccccc21` [Compound 374, ((3R,4S)-4-amino-1-(4-tert-butylphenylsulfonyl)pyrrolidin-3-yl)((R)-3-(1-(3-methoxypropyl)-1H-benzo[d]imidazol-2-yl)piperidin-1-yl)methanone], the IC50 fell in the range of 100 to 1000 nM.

With `COCCCn1c([C@@H]2CCCN(C(=O)[C@@H]3CN(C(=O)c4cccc(Cl)c4)C[C@H]3N)C2)nc2ccccc21` [Compound 375, ((3R,4S)-4-amino-1-(3-chlorobenzoyl)pyrrolidin-3-yl)((R)-3-(1-(3-methoxypropyl)-1H-benzo[d]imidazol-2-yl)piperidin-1-yl)methanone], the IC50 lay within 100 to 1000 nM.
